Measured values taken from patent publication US5270334A, “4-methoxy-5-methyl-pyran-3-ol natural products and derivatives thereof” (E. R. Squibb & Sons, Inc., priority 1992, dated 1993).

Tests used:
[1] = biological target: T1, lanosterol demethylase (Candida albicans, UniProt P10613); assay: inhibition of lanosterol demethylase, spectrophotometric carbon monoxide binding assay; details: Candida albicans SGY677; read-out: concentration which gives 50% inhibition of carbon monoxide binding
T1 construct: endogenous in cells; host or cells: Candida albicans SGY677
T1 sequence (P10613 whole entry): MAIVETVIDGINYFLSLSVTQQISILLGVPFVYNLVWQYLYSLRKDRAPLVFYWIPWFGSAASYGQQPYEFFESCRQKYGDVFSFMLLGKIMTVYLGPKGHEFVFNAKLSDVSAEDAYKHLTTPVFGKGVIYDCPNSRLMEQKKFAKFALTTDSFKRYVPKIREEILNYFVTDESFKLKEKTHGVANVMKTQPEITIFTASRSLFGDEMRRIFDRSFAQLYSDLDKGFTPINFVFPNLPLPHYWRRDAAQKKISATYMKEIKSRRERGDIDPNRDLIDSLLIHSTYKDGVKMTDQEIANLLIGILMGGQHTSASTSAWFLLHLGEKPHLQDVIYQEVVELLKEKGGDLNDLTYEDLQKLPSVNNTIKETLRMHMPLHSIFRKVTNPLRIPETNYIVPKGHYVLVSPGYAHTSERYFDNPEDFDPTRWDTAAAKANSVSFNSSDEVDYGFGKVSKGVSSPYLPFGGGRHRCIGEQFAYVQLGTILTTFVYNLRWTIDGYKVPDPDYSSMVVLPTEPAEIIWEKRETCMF
Protocol: (§1) The inhibition of lanosterol demethylase was determined by two methods: the spectrophotometric carbon monoxide binding assay of Omura and Sato (J. Biol. Chem. 239:2370-2378, 1964) and by a radiolabeled metabolic assay.
Cells of Candida albicans, SGY677, were grown overnight without shaking at 30° C. in a medium consisting of yeast extract 1%, peptone 2%, glucose 2% and distilled water. Cells were harvested by centrifugation and resuspended in 0.65M mannitol to an optical density at 600 nm of 2.5. At this density 1 ml of cells was equal to 6.7 mg constant dry weight (105° C. for 18 hours).
Scopularin and its alcohol derivative of Example 4 were added to the enzyme and the inhibition of carbon monoxide binding determined over a range of inhibitor concentrations.

[2] = biological target: T2, lanosterol demethylase of Candida albicans (Candida albicans, UniProt P10613); assay: inhibition of lanosterol demethylase, radiolabeled metabolic assay (14C-acetate, lanosterol accumulation); format: cell-based; details: Candida albicans SC5314, 14C-acetate, 30°
T2 construct: 14C-acetate sterol labelling, TLC
T2 sequence (P10613 whole entry): as above
Protocol: as §1
The ability of scopularin and its alcohol to inhibit the lanosterol demethylase of Candida albicans can also be visualized by a metabolic assay. Candida albicans, SC5314, was grown overnight at 30° with shaking in the same medium as that used above. Cells were harvested by centrifugation and resuspended in water to give an optical density of 0.3 at 660 nm. 750 μl of this cell suspension, 300 μl of a medium containing 0.35 g Difco yeast nitrogen base without amino acids, 1 g glucose and distilled water to 10 ml, 100 μl of test material and distilled water were combined to give a final volume of 1.425 ml. This was incubated for 15 minutes at 30° C. with shaking, then 3 μCi ^14 C-acetate was added and continued to incubate for 1 hour. Cells were harvested by centrifugation and extracted with 2×0.5 ml methanol; centrifuged, decanted supernate and repeated the extraction with […] methanol-benzene (1:1). Centrifuged, decanted; combined supernates, dried and resuspended in 100 μl chloroform-methanol (1:1). The aliquots were spotted onto silica gel 60 (Merck) plates and developed chromatographically in a solvent containing dichloromethane-acetone (60:1). […]

[3] = test system: cytochrome P450 enzymes, such as lanosterol demethylase; assay: inhibition of cytochrome P450 enzymes (general statement); format: biochemical; details: in words
[4] = test system: yeasts and fungi; assay: activity against a variety of yeasts and fungi (general statement); format: cell-based; details: in words

Row | SMILES | IC50 [1] | concentration causing accumulation of lanosterol, consistent with inhibition of lanosterol demethylase [2] | inhibition of cytochrome P450 enzymes, such as lanosterol demethylase [3] | activity against a variety of yeasts and fungi [4]
1 | CCC/C=C/C=C/C=C(\C)[C@H]1OC[C@@H](C)[C@@H](OC)[C@@H]1O (relative stereo) [Example 4] | 14 µM | 1.4×10^-6 | inhibitor | 
2 | C/C=C/C=C/C=C(\C)[C@@H]1OC[C@H](C)[C@H](OC)[C@H]1OC(=O)CN[C@@H]1O[C@H](CO)[C@@H](O)[C@H](O)[C@H]1O [Ic] |  |  | inhibit | has activity
